Experimental data taken from ChEMBL document CHEMBL1201862, “PubChem BioAssay data set” (2004).
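Results reflect a 48-hour exposure of cells in 96-well plates to compound at five concentrations. The concentration for 50% growth inhibition is given as GI50.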 Active and inactive are the calls of the source. No stated cut-off is given here; in the data, active = GI50 up to about 1.1 µM and inactive = higher.

Columns and labels:
Assay in all cases: inhibition of tumour cell growth, NCI panel, 48 h
A549 = test system: A549
ACHN = test system: ACHN
CAKI-1 = test system: CAKI-1
HL-60 = test system: HL-60
HOP-62 = test system: HOP-62
HT-29 = test system: HT-29
LOX IMVI = test system: LOX IMVI
M14 = test system: M14
NCI-H23 = test system: NCI-H23
OVCAR-8 = test system: OVCAR-8
SF-295 = test system: SF-295
SK-MEL-28 = test system: SK-MEL-28
SK-OV-3 = test system: SK-OV-3
SNB-19 = test system: SNB-19
SNB-75 = test system: SNB-75
SW-620 = test system: SW-620
U-251 = test system: U-251
SR = test system: SR

Measured: GI50

CN(/N=C/c1ccnc2ccccc12)c1c([N+](=O)[O-])cc([N+](=O)[O-])cc1[N+](=O)[O-]
inactive: A549 94.8 µM | ACHN 72.6 µM | CAKI-1 25.1 µM | HL-60 22.4 µM | HOP-62 88.3 µM | HT-29 > 100 µM | LOX IMVI 48.2 µM | M14 43.3 µM | NCI-H23 35.1 µM | OVCAR-8 98.2 µM | SF-295 76.9 µM | SK-MEL-28 60.5 µM | SK-OV-3 > 100 µM | SNB-19 > 100 µM | SNB-75 > 100 µM | SW-620 38.5 µM | U-251 88.3 µM

C[C@]12CCc3nonc3C1CC[C@@H]1C2CC[C@@]2(C)C1CC[C@@H]2O (some centres undefined)
inactive: A549 > 100 µM | ACHN > 100 µM | CAKI-1 > 100 µM | HL-60 > 100 µM | HOP-62 > 100 µM | HT-29 > 100 µM | LOX IMVI > 100 µM | M14 > 100 µM | NCI-H23 > 100 µM | OVCAR-8 > 100 µM | SF-295 > 100 µM | SK-MEL-28 > 100 µM | SK-OV-3 > 100 µM | SNB-19 > 100 µM | SNB-75 86.7 µM | SW-620 > 100 µM | U-251 > 100 µM

O=C(NCc1ccc2ccc3cccnc3c2n1)c1ccc[n+](Cc2ccccc2)c1
inactive: A549 > 100 µM | ACHN > 100 µM | HL-60 > 100 µM | HOP-62 > 100 µM | HT-29 98.6 µM | LOX IMVI > 100 µM | M14 > 100 µM | NCI-H23 > 100 µM | OVCAR-8 > 100 µM | SF-295 > 100 µM | SK-MEL-28 > 100 µM | SK-OV-3 > 100 µM | SNB-19 > 100 µM | SNB-75 > 100 µM | SR > 100 µM | SW-620 > 100 µM | U-251 > 100 µM

CC(=O)O[C@H]1CC[C@@]2(C)C(=CC[C@@H]3C2CC[C@]2(C)Nc4oncc4CC32)C1 (some centres undefined)
inactive: A549 28.4 µM | ACHN 25.6 µM | CAKI-1 31.3 µM | HL-60 11.7 µM | HOP-62 49.2 µM | HT-29 30.1 µM | M14 31.8 µM | NCI-H23 44 µM | OVCAR-8 34.6 µM | SF-295 32.6 µM | SK-MEL-28 37.2 µM | SK-OV-3 96.6 µM | SNB-75 24.2 µM | SW-620 43.3 µM | U-251 37.4 µM

COc1cccc(C2=NC(C(C)C)CO2)c1OC (centres undefined)
inactive: A549 > 100 µM | ACHN > 100 µM | CAKI-1 > 100 µM | HL-60 > 100 µM | HOP-62 > 100 µM | HT-29 > 100 µM | LOX IMVI > 100 µM | M14 > 100 µM | NCI-H23 > 100 µM | OVCAR-8 > 100 µM | SF-295 > 100 µM | SK-MEL-28 > 100 µM | SK-OV-3 > 100 µM | SNB-19 > 100 µM | SNB-75 > 100 µM | SW-620 > 100 µM

COC(=O)[C@H]1C2CC[C@@H]3C45C[C@@H](c6ccoc6)O[C@@H]4O[C@@H](O2)C31CCC5C (some centres undefined)
inactive: A549 > 100 µM | ACHN > 100 µM | CAKI-1 > 100 µM | HL-60 > 100 µM | HOP-62 > 100 µM | HT-29 > 100 µM | LOX IMVI > 100 µM | M14 > 100 µM | NCI-H23 > 100 µM | OVCAR-8 > 100 µM | SF-295 97.5 µM | SK-OV-3 > 100 µM | SNB-19 > 100 µM | SW-620 > 100 µM | U-251 > 100 µM

CN/N=C(/CC(=O)c1sc(NNC(C)=O)nc1C)C(=O)Nc1ccc(OC)cc1OC
inactive: A549 > 100 µM | ACHN > 100 µM | CAKI-1 > 100 µM | HL-60 > 100 µM | HOP-62 > 100 µM | HT-29 > 100 µM | LOX IMVI > 100 µM | M14 > 100 µM | NCI-H23 > 100 µM | OVCAR-8 > 100 µM | SF-295 > 100 µM | SK-MEL-28 > 100 µM | SNB-19 > 100 µM | SR > 100 µM | SW-620 > 100 µM | U-251 > 100 µM

COc1cc([C@@H]2OC(=O)C3C2C(=O)O[C@H]3c2ccc(O)c(OC)c2)ccc1O (some centres undefined)
inactive: A549 > 100 µM | ACHN > 100 µM | CAKI-1 > 100 µM | HOP-62 > 100 µM | HT-29 > 100 µM | LOX IMVI > 100 µM | M14 > 100 µM | NCI-H23 > 100 µM | OVCAR-8 > 100 µM | SF-295 > 100 µM | SK-MEL-28 > 100 µM | SK-OV-3 > 100 µM | SNB-19 > 100 µM | SNB-75 > 100 µM | SR > 100 µM | SW-620 > 100 µM | U-251 > 100 µM

NC(=O)c1ccccc1NC(=O)C(=O)Cc1nc2ccccc2nc1O
inactive: A549 > 100 µM | ACHN > 100 µM | CAKI-1 > 100 µM | HL-60 > 100 µM | HOP-62 > 100 µM | LOX IMVI > 100 µM | M14 > 100 µM | NCI-H23 > 100 µM | OVCAR-8 50 µM | SF-295 > 100 µM | SK-MEL-28 > 100 µM | SK-OV-3 > 100 µM | SNB-19 > 100 µM | SNB-75 60.8 µM | SW-620 > 100 µM | U-251 > 100 µM

Cc1ccc(NC(=O)CCC(=O)C2CC(=O)CCC2=O)cc1C (centres undefined)
inactive: A549 > 100 µM | ACHN > 100 µM | CAKI-1 > 100 µM | HL-60 > 100 µM | HOP-62 > 100 µM | HT-29 > 100 µM | LOX IMVI > 100 µM | M14 > 100 µM | NCI-H23 > 100 µM | OVCAR-8 > 100 µM | SF-295 > 100 µM | SK-MEL-28 > 100 µM | SK-OV-3 > 100 µM | SNB-19 > 100 µM | SW-620 > 100 µM | U-251 > 100 µM

CCCCCN(CCCCC)C(=O)[C@H](CCC(=O)OCc1ccccc1)NC(=O)c1cc2ccccc2[nH]1
inactive: A549 > 100 µM | ACHN > 100 µM | CAKI-1 > 100 µM | HL-60 > 100 µM | HOP-62 > 100 µM | HT-29 > 100 µM | LOX IMVI > 100 µM | M14 > 100 µM | NCI-H23 > 100 µM | OVCAR-8 > 100 µM | SF-295 > 100 µM | SK-MEL-28 > 100 µM | SK-OV-3 > 100 µM | SNB-19 > 100 µM | SNB-75 > 100 µM | SW-620 > 100 µM | U-251 > 100 µM

C=CCCCCCCCC(O)C1C[C@H](O)C(CCCCC)O1 (some centres undefined)
inactive: A549 19.4 µM | ACHN 16.9 µM | CAKI-1 17.9 µM | HL-60 17.5 µM | HT-29 18.6 µM | LOX IMVI 19.6 µM | M14 17.7 µM | NCI-H23 16.9 µM | OVCAR-8 19.9 µM | SF-295 17.6 µM | SK-MEL-28 17.9 µM | SK-OV-3 20.4 µM | SNB-75 15.2 µM | SW-620 21.1 µM | U-251 16 µM

Cn1cc2ccccc2c1-c1nc(F)nc(Oc2ccc3c(c2)CC[C@@H]2C3CC[C@@]3(C)C2C[C@H](O)[C@@H]3O)n1 (some centres undefined)
inactive: A549 18.6 µM | ACHN 20.2 µM | CAKI-1 18.1 µM | HL-60 22.4 µM | HOP-62 4.45 µM | HT-29 19.3 µM | M14 15.9 µM | NCI-H23 18.3 µM | OVCAR-8 15.8 µM | SF-295 17.6 µM | SK-MEL-28 19.7 µM | SK-OV-3 21.9 µM | SNB-19 13.8 µM | SNB-75 20.5 µM | SW-620 4.14 µM | U-251 10.3 µM

CC(C)C(NCc1c2ccccc2[n+]([O-])c2ccccc12)C(=O)O (centres undefined)
inactive: A549 > 100 µM | ACHN 42.3 µM | CAKI-1 > 100 µM | HL-60 30.3 µM | HOP-62 > 100 µM | HT-29 20 µM | LOX IMVI 33.8 µM | M14 > 100 µM | NCI-H23 44.1 µM | OVCAR-8 70 µM | SF-295 > 100 µM | SK-MEL-28 44.7 µM | SK-OV-3 > 100 µM | SNB-19 53.3 µM | SNB-75 20.9 µM | SW-620 48.6 µM | U-251 38.1 µM

COC(=O)C(=O)C(C(=O)C(=O)Nc1cccc(C(C)=O)c1)c1nc2ccc([N+](=O)[O-])cc2nc1O (centres undefined)
inactive: A549 > 100 µM | ACHN > 100 µM | CAKI-1 > 100 µM | HL-60 80 µM | HOP-62 > 100 µM | HT-29 > 100 µM | LOX IMVI > 100 µM | M14 > 100 µM | NCI-H23 > 100 µM | OVCAR-8 > 100 µM | SF-295 > 100 µM | SK-MEL-28 > 100 µM | SK-OV-3 > 100 µM | SNB-19 > 100 µM | SR > 100 µM | SW-620 > 100 µM | U-251 > 100 µM

COc1ccccc1OCc1nnc(SCC(=O)O)n1-c1ccccc1
inactive: A549 > 100 µM | ACHN > 100 µM | HL-60 > 100 µM | HOP-62 > 100 µM | HT-29 > 100 µM | LOX IMVI > 100 µM | M14 > 100 µM | NCI-H23 > 100 µM | OVCAR-8 > 100 µM | SF-295 > 100 µM | SK-MEL-28 > 100 µM | SK-OV-3 > 100 µM | SNB-75 > 100 µM | SR > 100 µM | U-251 > 100 µM
